Source: ChEMBL document CHEMBL3886414, “Bicarbocyclic and tricarbocyclic ethynyl derivatives and uses of same” (2015)
pIC50: −log10 of the molar value.

Each molecule was assayed against Metabotropic glutamate receptor 5 (Homo sapiens, UniProt P41594) (assay: Calcium Mobilization Assay: The rmGluR5 or hmGluR5 was stably expressed in a HEK 293 cell line and gown in Dulbecco's Modified Eagle Medium (DMEM) (Invitrogen, Carlsbad, Calif.) with supplements (10% bovine calf serum, 4 mM glutamine, 100 units/mL penicillin, 100 μg/mL streptomycin and […]) at 37° C., 5% CO2. Twenty-four hours prior to assay, cells were seeded into 384-well black wall microtiter plates coated with poly-D-lysine. Just prior to assay, media was aspirated and cells dye-loaded (25 μL/well) with 3 μM Fluo-4/0.01% pluronic acid in assay buffer (Hank's Balanced Saline Solution (HBSS)): 150 mM NaCl, 5 mM KCl, 1 mM CaCl2, 1 mM MgCl2, plus 20 mM N-2-Hydroxyethylpiperazine-N′-2-ethanesulfonic acid (HEPES), pH 7.4, 0.1% bovine serum albumin (BSA) and 2.5 mM probenecid) for 1 hour in 5% CO2 at 37° C. After excess dye was discarded, cells were washed in assay buffer and layered with a final volume equal to 30 μL/well. Basal fluorescence is monitored in a fluorometri).
Chain of Metabotropic glutamate receptor 5 (P41594 whole entry): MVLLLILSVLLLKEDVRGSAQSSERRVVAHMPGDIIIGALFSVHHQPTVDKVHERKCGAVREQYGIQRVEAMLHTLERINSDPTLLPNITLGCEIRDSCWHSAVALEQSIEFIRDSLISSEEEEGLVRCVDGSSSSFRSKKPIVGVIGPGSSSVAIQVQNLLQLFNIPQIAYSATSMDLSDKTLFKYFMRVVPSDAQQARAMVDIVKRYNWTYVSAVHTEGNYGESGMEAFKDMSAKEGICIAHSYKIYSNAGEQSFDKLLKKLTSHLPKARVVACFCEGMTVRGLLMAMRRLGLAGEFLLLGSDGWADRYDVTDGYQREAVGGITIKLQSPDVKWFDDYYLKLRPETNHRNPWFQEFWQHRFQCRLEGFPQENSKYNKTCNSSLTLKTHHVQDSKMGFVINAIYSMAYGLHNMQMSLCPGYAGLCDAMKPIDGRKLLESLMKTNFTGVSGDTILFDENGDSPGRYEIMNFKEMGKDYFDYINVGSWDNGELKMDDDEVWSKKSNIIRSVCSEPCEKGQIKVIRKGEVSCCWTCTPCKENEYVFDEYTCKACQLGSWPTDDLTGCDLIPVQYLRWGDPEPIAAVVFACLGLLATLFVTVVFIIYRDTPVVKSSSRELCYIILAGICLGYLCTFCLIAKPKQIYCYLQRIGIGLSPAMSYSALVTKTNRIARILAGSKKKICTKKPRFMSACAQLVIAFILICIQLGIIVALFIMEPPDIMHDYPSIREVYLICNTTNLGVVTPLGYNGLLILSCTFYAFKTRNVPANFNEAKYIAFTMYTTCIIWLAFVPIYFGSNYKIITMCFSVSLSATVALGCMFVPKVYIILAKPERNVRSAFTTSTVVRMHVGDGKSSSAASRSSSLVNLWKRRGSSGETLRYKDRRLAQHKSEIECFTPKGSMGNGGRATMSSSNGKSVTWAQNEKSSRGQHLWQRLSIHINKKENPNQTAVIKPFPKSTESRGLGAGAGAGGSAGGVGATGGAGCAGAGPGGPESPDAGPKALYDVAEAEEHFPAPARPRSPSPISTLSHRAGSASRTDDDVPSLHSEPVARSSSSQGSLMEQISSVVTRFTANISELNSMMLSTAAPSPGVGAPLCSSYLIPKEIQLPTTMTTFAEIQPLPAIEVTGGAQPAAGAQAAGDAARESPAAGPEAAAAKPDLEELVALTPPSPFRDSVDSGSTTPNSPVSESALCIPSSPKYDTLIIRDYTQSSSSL
Assay type: functional, cell-based, HEK293
`Cc1ccc(C#CC23CC4CC(C2)CC(NC(=O)c2cnccn2)(C4)C3)cn1` gave a pIC50 of 6.15.
Molecule `Cc1cncc(C(=O)NC23CC4CC(CC(C#Cc5cccnc5)(C4)C2)C3)n1` has a pIC50 of 8.42.
Work on `O=C(NC12CCCC(C#Cc3cccc(F)c3)(CC1)C2)c1cnccn1` (stereo unspecified) yielded a pIC50 of 8.92.
`O=C(NC12CC3CC(CC(C#Cc4cnccn4)(C3)C1)C2)c1cncc(F)c1` was tested, and the pIC50 was 7.52.
Work on `O=C(N[C@@]12CCC[C@@](C#Cc3ncccc3F)(CC1)C2)c1cnccn1` yielded a pIC50 of 8.03.
Work on `Cc1cccc(C#C[C@]23CCC[C@](NC(=O)c4ccccn4)(CC2)C3)n1` yielded a pIC50 of 8.28.
